US20220054510A1, “USE OF 1-ALPHA-HYDROXYVITAMIN D5 AND RELATED COMPOUNDS AS PROPHYLACTIC OR THERAPEUTIC AGENTS FOR SARS-COV-2 (COVID-19 VIRUS) AND RELATED INFECTIONS” (priority 2020, published 2022)

Tests used:
[1] = tested on: Ace2-A549 cells (human lung epithelial cells); assay: host cell survival in SARS-CoV-2 infected Ace2-A549 cells; conditions: concentration of 10 micromolar
SARS-CoV-2 [2] = type: cell-based; conditions: Ace2-A549 cells, concentration of 10 micromolar, FIG. 2
SARS-CoV-2 [3] = conditions: biorxiv.org/content/10.1101/2020.06.21.162396v1; cited from earlier work

| SMILES | killing of host cells [1] | elimination of SARS-CoV-2 virus infection (SARS-CoV-2 [2]) | in vitro activity against this virus (SARS-CoV-2 [3]) |
| --- | --- | --- | --- |
| C=C1/C(=C\C=C2/CCC[C@]3(C)[C@@H]([C@H](C)CC[C@@H](CC)C(C)C)CC[C@@H]23)C[C@@H](O)C[C@@H]1O [1-alphahydroxyvitamin D5, 1-alpha-hydroxyvitamin D5] | without killing the host cells | greater than 99% | – |
| C=C1/C(=C\C=C2/CCC[C@]3(C)[C@@H]([C@H](C)CCCC(C)(C)O)CC[C@@H]23)C[C@@H](O)C[C@@H]1O [Calcitriol] | – | – | in vitro activity against this virus |
